# Measurements reported in patent US20250011288A1 (BRISTOL-MYERS SQUIBB COMPANY, priority 2021, published 2025).
# Molecular target: T1, human RXFP1 (Homo sapiens, UniProt Q9HBX9)
# T1 construct: expressed in transfected cells
# T1 sequence (Q9HBX9 1-757): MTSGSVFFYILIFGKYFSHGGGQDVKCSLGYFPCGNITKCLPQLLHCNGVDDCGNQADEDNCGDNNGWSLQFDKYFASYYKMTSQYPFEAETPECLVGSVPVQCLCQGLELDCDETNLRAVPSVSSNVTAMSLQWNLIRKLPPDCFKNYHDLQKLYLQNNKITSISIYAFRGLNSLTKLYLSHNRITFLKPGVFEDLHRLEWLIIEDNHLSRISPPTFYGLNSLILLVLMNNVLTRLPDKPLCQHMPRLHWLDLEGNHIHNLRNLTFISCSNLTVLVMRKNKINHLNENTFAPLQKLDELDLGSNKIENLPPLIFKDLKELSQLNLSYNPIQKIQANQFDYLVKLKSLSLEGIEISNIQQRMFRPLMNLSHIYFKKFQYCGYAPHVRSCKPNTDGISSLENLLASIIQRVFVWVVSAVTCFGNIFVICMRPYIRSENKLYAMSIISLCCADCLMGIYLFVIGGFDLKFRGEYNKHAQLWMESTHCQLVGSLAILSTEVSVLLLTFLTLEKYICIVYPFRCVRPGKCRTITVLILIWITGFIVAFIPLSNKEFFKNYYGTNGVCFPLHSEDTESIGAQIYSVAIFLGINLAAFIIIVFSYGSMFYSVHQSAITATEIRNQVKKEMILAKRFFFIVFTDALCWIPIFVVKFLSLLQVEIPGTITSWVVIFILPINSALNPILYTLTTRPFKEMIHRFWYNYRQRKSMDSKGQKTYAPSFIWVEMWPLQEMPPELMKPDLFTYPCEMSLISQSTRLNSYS
# Experiment: human RXFP1 (hRXFP1) HEK293 cAMP assay (HTRF)
# Format: cell-based
# Settings: HEK293 cells stably expressing human RXFP1, 30 min at room temperature
# Summary of the method: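 HEK293 cells stably expressing human RXFP1 (1500 cells/well) in HBSS/20 mM HEPES/0.05% BSA/0.5 mM IBMX, treated with compound (0.010 nM–50 µM final, 2% DMSO) for 30 min at room temperature. Intracellular cAMP read by HTRF; potency from 4-parameter logistic fit of cAMP versus concentration.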
row,Structure (SMILES),EC50 [nM]
1,"COc1ncccc1C(=O)N[C@@H]1C2CCC(C2=C(C)C)[C@@H]1C(=O)Nc1ccc(F)c(C(F)(F)F)c1 (stereo partly drawn) [Example 8, N-[(2R,3S)-3-{[4-fluoro-3-(trifluoromethyl)phenyl]carbamoyl}-7-(propan-2-ylidene)bicyclo [2.2.1]heptan-2-yl]-2-methoxypyridine-3-carboxamide]",1300
2,COCCn1cc(OC)c(C(=O)N[C@@H]2C3CCC(/C3=C/C3CC3)[C@@H]2C(=O)Nc2ccc(F)c(C(F)(F)F)c2)n1 (stereo partly drawn) [Example 79],230
3,"O=C(O)c1cccc(C2=NOC(C(=O)N[C@@H]3C4CCC(/C4=C/C(F)(F)F)[C@@H]3C(=O)Nc3ccc(F)c(C(F)(F)F)c3)C2)c1 (stereo partly drawn) [Example 33, 3-(5-{[(2R,3S,7Z)-3-{[4-fluoro-3-(trifluoromethyl)phenyl]carbamoyl}-7-(2,2,2-trifluoroethylidene)bicyclo[2.2.1]heptan-2-yl]carbamoyl}-4,5-dihydro-1,2-oxazol-3-yl)benzoic acid]",4400
4,"COc1cc2c(cc1C(=O)N[C@H]1[C@@H](C(=O)Nc3ccc(F)c(C(F)(F)F)c3)[C@H]3CC[C@@H]1/C3=C\C1CC1)CN(CCS(C)(=O)=O)CC2 [Example 84, N-((1R,2R,3S,4R,Z)-7-(cyclopropylmethylene)-3-((4-fluoro-3-(trifluoromethyl)phenyl)carbamoyl)bicyclo[2.2.1]heptan-2-yl)-6-methoxy-2-(2-(methylsulfonyl)ethyl)-1,2,3,4-tetrahydroisoquinoline-7-carboxamide]",330
5,"COc1cnc(-c2cc([C@H](OC(=O)Nc3ccccc3)C(F)(F)F)ccc2F)cc1C(=O)N[C@@H]1C2CCC(/C2=C/C(F)(F)F)[C@@H]1C(=O)Nc1ccc(F)c(C(F)(F)F)c1 (stereo partly drawn) [Example 38, (1S)-2,2,2-trifluoro-1-14-fluoro-3-(4-{[(2R,3S,7Z)-3-{[4-fluoro-3-(trifluoromethyl)phenyl]carbamoyl}-7-(2.2,2-trifluoroethylidene)bicyclo[2.2.1]heptan-2-yl]carbamoyl}-5-methoxypyridin-2-yl)phenyl]ethyl N-phenylcarbamate]",63
6,"COc1cc2c(cc1C(=O)N[C@@H]1C3CCC(/C3=C/C3CC3)[C@@H]1C(=O)Nc1ccc(F)c(C(F)(F)F)c1)CN(CCCO)CC2 (stereo partly drawn) [Example 86, N-[(1R,2R,3S,4R)-7-(cyclopropyl-methylidene)-3-{[4-fluoro-3-(trifluoromethyl)phenyl]carbamoyl}bicyclo[2.2.1]heptan-2-yl]-2-(3-hydroxypropyl)-6-methoxy-1,2,3,4-tetrahydroiso-quinoline-7-carboxamide]",240
7,"CC(C)(C)CNC(=O)[C@@H]1[C@H](NC(=O)c2cc(C3=NOC4CC(CO)CC34)cc3c2OC(C)(C)C3)[C@@H]2CC[C@H]1/C2=C/C1CC1 (stereo partly drawn) [Example 146, N-[(1R,2R,3S, 4R,7Z)-7-(cyclopropyl-methylidene)-3-[(2,2-dimethylpropyl)carbamoyl]bicyclo [2.2.1]heptan-2-yl]-5-[5-(hydroxymethyl)-3aH,4H,5H,6H,6aH-cyclopenta[d][1,2]oxazol-3-yl]-2,2-dimethyl-2,3-dihydro-1-benzofuran-7-carboxamide]",3.5

# Further lines, results first:
row,EC50 [nM],Structure (SMILES)
1,7.8,"CC(O)C1CC2ON=C(c3cc4c(c(C(=O)N[C@H]5[C@@H](C(=O)Nc6ccc(F)c(C(F)(F)F)c6)[C@H]6CC[C@@H]5/C6=C\C5CC5)c3)OC(C)(C)C4)C2C1 (stereo partly drawn) [Example 175, N-[(1R,2R,3S,4R, 7Z)-7-(cyclopropyl-methylidene)-3-{[4-fluoro-3-(trifluoromethyl)phenyl]carbamoyl}bicyclo[2.2.1]heptan-2-yl]-5-[5-(1-hydroxyethyl)-3aH,4H,5H,6H, 6aH-cyclopenta[d][1,2]oxazol-3-yl]-2,2-dimethyl-2,3-dihydro-1-benzofuran-7-carboxamide]"
2,1.2,"COc1ncc(C2=NOC3CC(C(O)C(F)(F)F)CC23)cc1C(=O)N[C@H]1[C@@H](C(=O)Nc2ccc(F)c(C(F)(F)F)c2)[C@H]2CC[C@@H]1/C2=C\C1CC1 (stereo partly drawn) [Example 130, N-((1R,2R,3S,4R,Z)-7-(cyclopropylmethylene)-3-((4-fluoro-3-(trifluoromethyl)phenyl)carbamoyl)bicyclo[2.2.1]heptan-2-yl)-2-methoxy-5-(5-(2,2,2-trifluoro-1-hydroxyethyl)-3a,5,6,6a-tetrahydro-4H-cyclopenta[d]isoxazol-3-yl)nicotinamide]"
3,2.5,"COc1ncc(-c2cnc3n2CC(O)CC3)cc1C(=O)N[C@H]1[C@@H](C(=O)Nc2ccc(F)c(C(F)(F)F)c2)[C@H]2CC[C@@H]1/C2=C\C1CC1 (stereo partly drawn) [Example 102, N-((1R,2R,3S,4R,Z)-7-(cyclopropyl-methylene)-3-((4-fluoro-3-(trifluoromethyl)phenyl)carbamoyl)bicyclo[2.2.1]heptan-2-yl)-5-(6-hydroxy-5,6,7,8-tetrahydroimidazo [1,2-a]pyridin-3-yl)-2-methoxynicotinamide]"
4,140,"COc1ncc(C(=O)OC(C)(C)C)cc1C(=O)N[C@H]1[C@@H](C(=O)Nc2ccc(F)c(C(F)(F)F)c2)[C@H]2CC[C@@H]1/C2=C\C1CC1 [Example 78, tert-butyl 5-(((1R,2R,3S,4R,Z)-7-(cyclopropylmethylene)-3-((4-fluoro-3-(trifluoromethyl)phenyl)carbamoyl)bicyclo[2.2.1]heptan-2-yl)carbamoyl)-6-methoxynicotinate]"
5,2.7,"COc1ncc(C2=NOC3CC(C(C)(C)O)CC23)cc1C(=O)N[C@H]1[C@@H](C(=O)Nc2ccc(F)c(C(F)(F)F)c2)[C@H]2CC[C@@H]1/C2=C\C1CC1 (stereo partly drawn) [Example 109, N-((1R,2R,3S,4R,Z)-7-(cyclopropylmethylene)-3-((4-fluoro-3-(trifluoromethyl)phenyl)carbamoyl)bicyclo[2.2.1]heptan-2-yl)-5-(5-(2-hydroxypropan-2-yl)-3a,5,6,6a-tetrahydro-4H-cyclopenta[d]isoxazol-3-yl)-2-methoxynicotinamide]"
6,1.9,"COc1ncc(C2=NOC3CC(C(OC(=O)Nc4ccccc4)C(F)(F)F)CC23)cc1C(=O)N[C@H]1[C@@H](C(=O)Nc2ccc(F)c(C(F)(F)F)c2)[C@H]2CC[C@@H]1/C2=C\C1CCCC1 (stereo partly drawn) [Example 174, 1-[3-(5-{[(1R,2R,3S,4R, 7Z)-7-(cyclopentyl-methylidene)-3-{[4-fluoro-3-(trifluoromethyl)phenyl]carbamoyl}bicyclo[2.2.1]heptan-2-yl]carbamoyl}-6-methoxypyridin-3-yl)-3aH,4H,5H,6H, 6aH-cyclopenta[d][1,2]oxazol-5-yl]-2,2,2-trifluoroethyl N-phenylcarbamate]"
7,4,"COc1ncc(-c2cnc3n2CC(O)CC3)cc1C(=O)N[C@H]1[C@@H](C(=O)Nc2ccc(F)c(C(F)(F)F)c2)[C@H]2CC[C@@H]1/C2=C\C1CC1 (stereo partly drawn) [Example 104, N-((1R,2R,3S,4R,Z)-7-(cyclopropyl-methylene)-3-((4-fluoro-3-(trifluoromethyl)phenyl)carbamoyl)bicyclo[2.2.1]heptan-2-yl)-5-(6-hydroxy-5,6,7,8-tetrahydroimidazo[1,2-a]pyridin-3-yl)-2-methoxynicotinamide]"
8,4.1,"CC1Cc2cc(C3=NOC4CC(O)CC34)cc(C(=O)N[C@H]3[C@@H](C(=O)Nc4ccc(F)c(C(F)(F)F)c4)[C@H]4CC[C@@H]3/C4=C\C3CC3)c2O1 (stereo partly drawn) [Example 154, N-[(1R,2R,3S,4R, 7Z)-7-(cyclopropyl-methylidene)-3-{[4-fluoro-3-(trifluoromethyl)phenyl]carbamoyl}bicyclo[2.2.1]heptan-2-yl]-5-{5-hydroxy-3aH,4H,5H,6H, 6aH-cyclopenta[d][1, 2]oxazol-3-yl}-2-methyl-2,3-dihydro-1-benzofuran-7-carboxamide]"
